Values quoted from earlier work as cited in patent US9050475B2, “High SPF sunscreen compositions” (MD SOLARSCIENCES CORP., priority 2010, dated 2015).

Details: known UV-A or UV-B protection properties of FDA-approved sunscreens

Range Covered | SMILES
UV-B (UV-B: 290-320 nm) | CC1CC(OC(=O)c2ccccc2O)CC(C)(C)C1 (stereo not shown) [Homosalate]
UV-B (UV-B: 290-320 nm) | CCCCC(CC)COC(=O)c1ccccc1O (stereo not shown) [Octisalate, 2-ethylhexyl salicylate]
UV-B, UV-A2 | COc1cc(O)c(C(=O)c2ccccc2)cc1S(=O)(=O)O [Sulisobenzone]
UV-B (UV-B: 290-320 nm) | CCCCC(CC)COC(=O)c1ccc(N(C)C)cc1 (stereo not shown) [Padimate O, octyl dimethyl PABA]
UV-B (UV-B: 290-320 nm) | CCCCC(CC)COC(=O)C(C#N)=C(c1ccccc1)c1ccccc1 (stereo not shown) [Octocrylene, 2-ethylhexyl-2-cyano-3.3 diphenylacrylate]
UV-B, UV-A2 | COc1ccc(C(=O)c2ccccc2)c(O)c1 [Oxybenzone]
UV-B (UV-B: 290-320 nm) | CCOCCOC(=O)C=Cc1ccc(OC)cc1 [Cinoxate, 2-ethoxyethylp-methoxycinnamate]
